We go through one compound from US20150284399A1, “PROCESSES FOR THE PREPARATION OF S1P1 RECEPTOR MODULATORS AND CRYSTALLINE FORMS THEREOF” (Arena Pharmaceuticals, Inc., priority 2010, published 2015).

In one series the target is T1, S1P1 receptor (Homo sapiens, UniProt P21453).
T1 construct: expressed in transfected cells; host or cells: CHO-K1 (ATCC CCL-61), stably transfected
Description: HTRF assay for direct cAMP measurement. The conditions noted are these: recombinant CHO-K1 cells stably transfected with S1P1; agonist detected as decrease of cAMP concentration. The series is classed as cell-based. The source says:
Compounds were screened for agonists of the S1P1 receptor (e.g., human S1P1 receptor) using the HTRF® assay for direct cAMP measurement (Gabriel et al., Assay and Drug Development Technologies, 1:291-303, 2003) and recombinant CHO-K1 cells stably transfected with S1P1. CHO-K1 cells were obtained from ATCC® (Manassas, Va.; Catalog #CCL-61). An agonist of the S1P1 receptor was detected in the HTRF® assay for direct cAMP measurement as a compound which decreased cAMP concentration. HTRF® assay also was used to determine EC50 values for S1P1 receptor agonists.
HTRF® assay kit was purchased from Cisbio-US, Inc. (Bedford, Mass.; Catalog #62AM4PEC). […] The specific signal (i.e., fluorescence resonance energy transfer, FRET) is inversely proportional to the concentration of unlabeled cAMP in the standard or sample.
The fluorescence ratio (665 nm/620 nm) of the standards (0.17 to 712 nM cAMP) included in the assay was calculated and used to generate a cAMP standard curve according to the kit manufacturer's instructions. The fluorescence ratio of the samples (test compound or compound buffer) was calculated and used to deduce respective cAMP concentrations by reference to the cAMP standard curve. […]
HTRF® readout was accomplished using a PHERAstar (BMG LABTECH Inc., Durham, N.C.) or EnVision™ (PerkinElmer, Fremont Calif.) microplate reader.
Background: In TR-FRET formats the signal depends on donor and acceptor labels being close together.

Series [1] in a line: Dynamic moisture sorption (DMS). The series is classed as physicochemical. The conditions noted are these: crystalline form. The protocol:
Samples are prepared for dynamic moisture-sorption analysis by placing ˜5 mg to ˜20 mg of compound in a tarred sample holder on the VTI balance. The instrument is a dynamic moisture-sorption analyzer, VTI Corporation, SGA-100. A drying step is run at 40° C. and ˜1% RH for 1 h. The isotherm temperature is 25° C. A % weight change over 10 min (5 weight readings) of dm/dt=0.010 or 2 h, whichever occurs first, is required before continuing to the next step. The water content of the sample equilibrated as described above was determined from 30% RH to 90% RH and then back down to 10% RH.

The test system of another series is Male Sprague-Dawley rats. Put plainly: Rat Peripheral Lymphocyte Lowering (PLL) assay. The series is classed as in vivo. The note with it: 1.0 mg/kg oral dose in 0.5% methyl cellulose in water; 5 h post-dose; vs vehicle; FIG. 16. The method, then: Male Sprague-Dawley rats (Charles River Laboratories, Hollister, Calif.) were housed and maintained in humidity (40 to 60%) and temperature (68 to 72° F.) controlled facility on a 12 h: 12 h light/dark cycle (lights on at 6:30 am) with free access to food (Harlan Teklad, Orange, Calif., Rodent Diet 8604) and water. Rats were allowed (approximately) one week of habituation to the animal facility before testing.
Rats were given a 1.0 mg/kg oral dose of (R)-2-(9-chloro-7-(4-isopropoxy-3-(trifluoromethyl)benzyloxy)-2,3-dihydro-1H-pyrrolo[1,2-a]indol-1-yl)acetic acid or dosing vehicle (0.5% methyl cellulose in water) in a total volume of 1 mL/kg. Peripheral blood samples were collected at 5 h post-dose. Blood was collected via indwelling catheter. A complete cell count (CBC), including lymphocyte count, was obtained using a CELL-DYN® 3700 (Abbott Laboratories, Abbott Park, Ill.) instrument. Results are presented in FIG. 16, in which peripheral blood lymphocyte (PBL) count is shown for the 5 hour group.

T1 sequence (P21453 whole entry): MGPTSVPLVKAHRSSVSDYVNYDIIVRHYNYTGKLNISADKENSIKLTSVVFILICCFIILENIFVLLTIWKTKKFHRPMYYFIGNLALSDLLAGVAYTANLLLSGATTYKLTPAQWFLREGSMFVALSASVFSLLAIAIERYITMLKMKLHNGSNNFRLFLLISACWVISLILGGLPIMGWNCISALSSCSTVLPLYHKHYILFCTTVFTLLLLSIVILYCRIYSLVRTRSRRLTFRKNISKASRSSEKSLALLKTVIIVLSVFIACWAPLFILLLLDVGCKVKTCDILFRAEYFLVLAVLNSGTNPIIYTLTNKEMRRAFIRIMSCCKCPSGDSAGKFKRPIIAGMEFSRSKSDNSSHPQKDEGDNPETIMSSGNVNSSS

As usually defined, the EC50 is the concentration that produces a half-maximal response. As to `CC(C)Oc1ccc(COc2ccc3c(c2)c(Cl)c2n3CC[C@@H]2CC(=O)O)cc1C(F)(F)F` [(R)-2-(9-chloro-7-(4-isopropoxy-3-(trifluoromethyl)benzyloxy)-2,3-dihydro-1H-pyrrolo[1,2-a]indol-1-yl)acetic acid], on S1P1 receptor, the EC50 was determined as 0.028 nM. Further, the “hygroscopicity (DMS)” value in series [1] (10% RH to 90% RH at 25° C.) is listed as “non-hygroscopic”. Moreover, the “DMS weight gain over the full range of % RH tested” value in series [1] (10% RH to 90% RH at 25° C., listed as Crystalline form of (R)-2-(9-chloro-7-(4-isopropoxy-3-(trifluoromethyl)benzyloxy))) was “FIG. 3: gains less than about 0.1% weight over the full range”; in series [1] (10% RH to 90% RH at 25° C., listed as crystalline form of (R)-2-(9-chloro-7-(4-isopropoxy-3-(trifluoromethyl)benzyloxy))), “less than 0.1 % weight”. For the same compound, the “DMS maximum weight gain” value in series [1] (adsorption phase of the DMS cycle at about 70% RH) is “about 0.06%”. In addition, the “peripheral blood lymphocyte (PBL) lowering (lymphopenia)” value in the series with Male Sprague-Dawley rats is “exhibited activity for inducing PBL lowering (lymphopenia)”.
